From US7960393B2, “Pyrimidine derivatives useful for the treatment of diseases mediated by CRTH2” (Actimis Pharmaceuticals, Inc., priority 2002, dated 2011)

Columns and labels:
human CRTH2 = biological target: T1, human CRTH2 (Homo sapiens, UniProt Q9Y5Y4); test: Measurement of Ca2+ mobilization in the human CRTH2-transfected L1.2 cell line (Assay 1); assay type: cell-based; conditions: PGD2-induced Ca2+ mobilization in CRTH2-transfected L1.2 cells; compounds as yielded by solid phase synthesis, purity about 40 to 90%; read-out: Activity class
T1 construct: expressed in transfected cells; host or cells: L1.2 cells, pEAK expression vector, puromycin-selected
T1 sequence (Q9Y5Y4 1-395): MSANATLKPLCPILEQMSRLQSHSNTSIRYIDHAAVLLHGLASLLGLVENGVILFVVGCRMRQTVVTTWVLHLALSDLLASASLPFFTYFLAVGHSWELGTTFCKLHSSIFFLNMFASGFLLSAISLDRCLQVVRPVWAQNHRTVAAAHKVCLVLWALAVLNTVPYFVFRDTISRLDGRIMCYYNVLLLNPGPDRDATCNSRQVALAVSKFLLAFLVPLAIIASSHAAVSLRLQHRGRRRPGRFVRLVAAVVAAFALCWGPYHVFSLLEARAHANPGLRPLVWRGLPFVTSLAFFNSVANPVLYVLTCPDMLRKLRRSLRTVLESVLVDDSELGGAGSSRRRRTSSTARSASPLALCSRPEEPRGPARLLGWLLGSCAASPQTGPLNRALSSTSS
Experimental: Human CRTH2 cDNA was amplified from human eosinophil cDNA with gene specific primers containing restriction sites for cloning into pEAK vector (Edge Bio Systems). The human CRTH2 cDNA was cloned into the mammalian expression vector pEAK. This expression plasmid (40 μg) was transfected into L1.2 cells, at a cell density of 1×10^7 cells/500 μl, by using electroporation apparatus (Gene Pulser II, BioRad) at 250V/1,000 μF. One day after the transfection, puromycin (1 μg/ml, Sigma) was added into the cell culture plates. Two weeks after the transfection, grown cells were picked up for further growth.
[Measurement of Ca^2+ Mobilization in the Human CRTH2-Transfected L1.2 Cell Line] (Assay 1)
Ca^2+ loading buffer was prepared by mixing 5 μl of Fluo-3AM (2 mM in DMSO, final 1 μM, Molecular Probes) and 10 μl of pluronic F-127 (Molecular Probes) and diluting the resulting mixture in 10 ml of Ca^2+ assay buffer (20 mM HEPES pH 7.6, 0.1% BSA, 1 mM probenecid, Hanks' solution). The CRTH2 transfected cells which were prepared in Example 1 were washed with PBS, resuspended in Ca^2+ loading buffer at 1×10^7 cells/ml, and incubated for 60 min at room temperature. After incubation, cells were washed and resuspended in Ca^2+ assay buffer, then dispensed into transparent-bottom 96-well plates (#3631, Costar) at 2×10^5 cells/well. Cells were incubated with various concentrations of test compound for 5 minutes at room temperature. The emitted 480 nm fluorescence was measured on FDSS6000, a Ca^2+-measurement apparatus (Hamamatsu Photonics, Hamamatsu, Japan).
Assay results in Assay 1 are shown in Examples and tables of the Examples below. The data corresponds to the compounds as yielded by solid phase synthesis and thus to levels of purity of about 40 to 90%. For practical reasons, the compounds are grouped in four classes of activity as follows: IC50=A(< or =)10 nM<B(< or =)100 nM<C(< or =)500 nM<D

SMILES | IC50 (human CRTH2) [nM] | melting point [°C]
CN(CC(=O)NC1CCCC1)c1nc(Cc2ccc(NC(=O)c3ccccn3)cc2)nc(Cl)c1CC(=O)O [Example 1-2] | > 500 | > 135
CN(CC(=O)NC1CCCC1)c1nc(Cc2ccc(NC(=O)c3cccnc3)cc2)nc(Cl)c1CC(=O)O [Example 1-4] | > 500 | > 174
CC(C)C(=O)Nc1ccc(Cc2nc(Cl)c(CC(=O)O)c(N(C)CC(=O)NC3CCCC3)n2)cc1 [Example 1-5] | > 500 | > 142
CN(CC(=O)NC1CCCC1)c1nc(Cc2ccc(NC(=O)C3CC3)cc2)nc(Cl)c1CC(=O)O [Example 1-6] | > 500 | > 146
CN(CC(=O)NC1CCCC1)c1nc(Cc2ccc(NC(=O)c3ccccc3)cc2)nc(Cl)c1CC(=O)O [Example 1-9] | 10 to 100 | > 140
CC(=O)Nc1ccc(Cc2nc(Cl)c(CC(=O)O)c(N(C)CC(=O)NC3CCCC3)n2)cc1 [Example 1-10] | > 500 | > 118
CN(CC(=O)NC1CCCC1)c1nc(Cc2ccc(NC(=O)c3ccco3)cc2)nc(Cl)c1CC(=O)O [Example 1-11] | 100 to 500 | > 119
CCCCCC(=O)Nc1ccc(Cc2nc(Cl)c(CC(=O)O)c(N(C)CC(=O)NC3CCCC3)n2)cc1 [Example 1-12] | 100 to 500 | > 100
CN(CC(=O)NC1CCCC1)c1nc(Cc2ccc(NC(=O)CC3CCCCC3)cc2)nc(Cl)c1CC(=O)O [Example 1-13] | 10 to 100 | > 149
Cc1ccc(CC(=O)Nc2ccc(Cc3nc(Cl)c(CC(=O)O)c(N(C)CC(=O)NC4CCCC4)n3)cc2)cc1 [Example 1-15] | 10 to 100 | > 116
CN(CC(=O)NC1CCCC1)c1nc(Cc2ccc(NC(=O)c3cccc4ccccc34)cc2)nc(Cl)c1CC(=O)O [Example 1-22] | 10 to 100 | 136
CN(CC(=O)NC1CCCC1)c1nc(Cc2ccc(NS(=O)(=O)c3ccc4ccccc4c3)cc2)nc(Cl)c1CC(=O)O [Example 1-23] | > 500 | 116
CN(CC(=O)NC1CCCC1)c1nc(Cc2ccc(NC(=O)Cc3ccc(-c4ccccc4)cc3)cc2)nc(Cl)c1CC(=O)O [Example 1-24] | 100 to 500 | 124
CN(CC(=O)NC1CCCC1)c1nc(Cc2ccc(NC(=O)Cc3ccc4c(c3)OCO4)cc2)nc(Cl)c1CC(=O)O [Example 1-29] | 100 to 500 | > 120
CN(CC(=O)NC1CCCC1)c1nc(Cc2ccc(NC(=O)Cc3ccc(Oc4ccccc4)cc3)cc2)nc(Cl)c1CC(=O)O [Example 1-31] | 10 to 100 | > 123
CN(C)c1nc(Cc2ccc(NC(=O)/C=C/c3ccccc3)cc2)nc(Cl)c1CC(=O)O [Example 1-33] | < 10 | > 160
CN(C)c1nc(Cc2ccc(NC(=O)c3ccc(Cl)c(Cl)c3)cc2)nc(Cl)c1CC(=O)O [Example 1-34] | < 10 | > 168
CN(C)c1nc(Cc2ccc(NC(=O)c3ccc(Cl)cc3)cc2)nc(Cl)c1CC(=O)O [Example 1-35] | < 10 | > 166
COc1ccc(C(=O)Nc2ccc(Cc3nc(Cl)c(CC(=O)O)c(N(C)C)n3)cc2)cc1 [Example 1-36] | < 10 | > 130
CN(C)c1ccc(C(=O)Nc2ccc(Cc3nc(Cl)c(CC(=O)O)c(N(C)C)n3)cc2)cc1 [Example 1-37] | < 10 | > 111
COc1ccc(C(=O)Nc2ccc(Cc3nc(Cl)c(CC(=O)O)c(N(C)C)n3)cc2)cc1OC [Example 1-38] | 10 to 100 | > 95
CN(C)c1nc(Cc2ccc(NC(=O)c3ccc(C(F)(F)F)cc3)cc2)nc(Cl)c1CC(=O)O [Example 1-39] | < 10 | > 150
CN(C)c1nc(Cc2ccc(NC(=O)/C=C/c3ccc(Cl)cc3)cc2)nc(Cl)c1CC(=O)O [Example 1-41] | < 10 | 117
CN(C)c1nc(Cc2ccc(NC(=O)c3ccc(Br)cc3)cc2)nc(Cl)c1CC(=O)O [Example 1-42] | < 10 | 100
CN(C)c1nc(Cc2ccc(NC(=O)c3cccc(Cl)c3Cl)cc2)nc(Cl)c1CC(=O)O [Example 1-43] | 100 to 500 | 101
CN(C)c1nc(Cc2ccc(NC(=O)c3cc(Cl)ccc3Cl)cc2)nc(Cl)c1CC(=O)O [Example 1-44] | < 10 | 96
CN(C)c1nc(Cc2ccc(NC(=O)c3ccc4ccccc4c3)cc2)ncc1CC(=O)O [Example 2-1, {4-(Dimethylamino)-2-[4-(2-naphthoylamino)benzyl]pyrimidin-5-yl}acetic acid] | – | 210
CN(C)c1nc(Cc2ccc(NC(=O)c3ccc4ccccc4c3)cc2)nc(Cl)c1CC(N)=O [Example 11, N-(4-{[5-(2-Amino-2-oxoethyl)-4-chloro-6-(dimethylamino)pyrimidin-2-yl]methyl}phenyl)-2-naphthamide] | – | 189 to 190

Results, then the molecule that gave them:

IC50 (human CRTH2) [nM] | melting point [°C] | SMILES
< 10 | 177 | CN(CC(=O)N1CCCC1)c1nc(Cc2ccc(NC(=O)c3ccc4ccccc4c3)cc2)nc(Cl)c1CC(=O)O [Example 1-3]
< 10 | 181 | CC(C)NC(=O)CN(C)c1nc(Cc2ccc(NC(=O)c3ccc4ccccc4c3)cc2)nc(Cl)c1CC(=O)O [Example 1-7]
< 10 | 134 | CN(CC(=O)NC1CCCCC1)c1nc(Cc2ccc(NC(=O)c3ccc4ccccc4c3)cc2)nc(Cl)c1CC(=O)O [Example 1-8]
< 10 | > 139 | CN(CC(=O)NC1CCCC1)c1nc(Cc2ccc(NC(=O)CCc3ccccc3)cc2)nc(Cl)c1CC(=O)O [Example 1-14]
< 10 | 137 | CN(CC(=O)NC1CCCC1)c1nc(Cc2ccc(NC(=O)c3ccc4ccccc4n3)cc2)nc(Cl)c1CC(=O)O [Example 1-16]
< 10 | 142 | CN(CC(=O)NC1CCCC1)c1nc(Cc2ccc(NC(=O)/C=C/c3ccccc3)cc2)nc(Cl)c1CC(=O)O [Example 1-17]
< 10 | 143 | CN(CC(=O)NC1CCCC1)c1nc(Cc2ccc(NC(=O)c3ccc(Cl)cc3)cc2)nc(Cl)c1CC(=O)O [Example 1-18]
< 10 | 144 | CN(CC(=O)NC1CCCC1)c1nc(Cc2ccc(NC(=O)c3ccc(Cl)c(Cl)c3)cc2)nc(Cl)c1CC(=O)O [Example 1-19]
< 10 | 104 | COc1ccc(C(=O)Nc2ccc(Cc3nc(Cl)c(CC(=O)O)c(N(C)CC(=O)NC4CCCC4)n3)cc2)cc1 [Example 1-20]
< 10 | 125 | Cc1ccc(C(=O)Nc2ccc(Cc3nc(Cl)c(CC(=O)O)c(N(C)CC(=O)NC4CCCC4)n3)cc2)cc1 [Example 1-21]
< 10 | 118 | CN(CC(=O)NC1CCCC1)c1nc(Cc2ccc(NC(=O)c3cc4ccccc4o3)cc2)nc(Cl)c1CC(=O)O [Example 1-25]
< 10 | 146 | CN(CC(=O)NC1CCCC1)c1nc(Cc2ccc(NC(=O)c3cc4ccccc4[nH]3)cc2)nc(Cl)c1CC(=O)O [Example 1-26]
< 10 | 101 | CN(CC(=O)NC1CCCC1)c1nc(Cc2ccc(NC(=O)c3ccc(C#N)cc3)cc2)nc(Cl)c1CC(=O)O [Example 1-27]
< 10 | > 110 | CN(CC(=O)NC1CCCC1)c1nc(Cc2ccc(NC(=O)CC3Cc4ccccc4C3)cc2)nc(Cl)c1CC(=O)O [Example 1-28]
< 10 | > 118 | CN(CC(=O)NC1CCCC1)c1nc(Cc2ccc(NC(=O)Cc3cccc(Oc4ccccc4)c3)cc2)nc(Cl)c1CC(=O)O [Example 1-30]
< 10 | 135 to 142 | CN(C)c1nc(Cc2ccc(NC(=O)c3ccc4ccccc4n3)cc2)nc(Cl)c1CC(=O)O [Example 1-32]
